# Data: PubChem BioAssay (NCI)
#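 Each compound was tested at five concentrations against cells in 96-well plates for 48 hours. GI50: concentration for 50% inhibition of growth. TGI: concentration producing complete growth inhibition.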
# Assays:
# Assay in all cases: NCI anticancer screen, dose series, 48 h
# A549 NSCLC = system: A549 NSCLC
# SNB-75 CNS = system: SNB-75 CNS
# NCI-H226 lung = system: NCI-H226 lung
# K-562 leukemia = system: K-562 leukemia
# HCC-2998 colon = system: HCC-2998 colon
# T-47D breast = system: T-47D breast
# PC-3 prostate = system: PC-3 prostate
# A498 renal = system: A498 renal
# COLO 205 colon = system: COLO 205 colon
# MDA-MB-435 = system: MDA-MB-435
# MOLT-4 leukemia = system: MOLT-4 leukemia
# KM12 colon = system: KM12 colon
# HCT-116 colon = system: HCT-116 colon
# UACC-62 melanoma = system: UACC-62 melanoma
# HS 578T breast = system: HS 578T breast
# DU-145 prostate = system: DU-145 prostate
# ACHN renal = system: ACHN renal
# OVCAR-4 ovarian = system: OVCAR-4 ovarian
# HT29 colon = system: HT29 colon
# LOX IMVI melanoma = system: LOX IMVI melanoma
# SNB-19 CNS = system: SNB-19 CNS
# HOP-92 NSCLC = system: HOP-92 NSCLC
# TK-10 renal = system: TK-10 renal
# SK-OV-3 ovarian = system: SK-OV-3 ovarian
# MDA-MB-468 breast = system: MDA-MB-468 breast
# SF-539 CNS = system: SF-539 CNS
# SK-MEL-5 melanoma = system: SK-MEL-5 melanoma
# HOP-62 NSCLC = system: HOP-62 NSCLC
# SR leukemia = system: SR leukemia
# SF-295 CNS = system: SF-295 CNS
# SW-620 colon = system: SW-620 colon
# CCRF-CEM leukemia = system: CCRF-CEM leukemia
# RPMI-8226 leukemia = system: RPMI-8226 leukemia
# BT-549 breast = system: BT-549 breast
# EKVX NSCLC = system: EKVX NSCLC
# OVCAR-8 ovarian = system: OVCAR-8 ovarian
# CAKI-1 renal = system: CAKI-1 renal
# SN12C renal = system: SN12C renal
# NCI/ADR-RES ovarian = system: NCI/ADR-RES ovarian
# RXF 393 renal = system: RXF 393 renal
# HL-60(TB) leukemia = system: HL-60(TB) leukemia
# UO-31 renal = system: UO-31 renal
# NCI-H23 lung = system: NCI-H23 lung
# NCI-H522 lung = system: NCI-H522 lung
# U251 CNS = system: U251 CNS
# SK-MEL-2 melanoma = system: SK-MEL-2 melanoma
# MALME-3M melanoma = system: MALME-3M melanoma
# M14 melanoma = system: M14 melanoma
# IGROV1 ovarian = system: IGROV1 ovarian
# UACC-257 melanoma = system: UACC-257 melanoma
# SF-268 CNS = system: SF-268 CNS
# NCI-H460 lung = system: NCI-H460 lung
# MCF7 breast = system: MCF7 breast
# OVCAR-5 ovarian = system: OVCAR-5 ovarian
# 786-0 renal = system: 786-0 renal
# OVCAR-3 ovarian = system: OVCAR-3 ovarian
# MDA-MB-231 breast = system: MDA-MB-231 breast
# SK-MEL-28 melanoma = system: SK-MEL-28 melanoma
# HCT-15 colon = system: HCT-15 colon
compound,measurement,setting,value
COc1ccccc1/C=C/c1cccc(NC(=S)NCCCCN(C)C)c1,GI50,A549 NSCLC,16.3 µM
same,TGI,A549 NSCLC,34.4 µM
same,GI50,SNB-75 CNS,12.1 µM
same,TGI,SNB-75 CNS,27.2 µM
same,GI50,NCI-H226 lung,10.2 µM
same,TGI,NCI-H226 lung,27.4 µM
same,GI50,K-562 leukemia,3.07 µM
same,TGI,K-562 leukemia,13.3 µM
same,GI50,HCC-2998 colon,13.2 µM
same,TGI,HCC-2998 colon,27.2 µM
same,GI50,T-47D breast,11.6 µM
same,TGI,T-47D breast,27.3 µM
same,GI50,PC-3 prostate,14.2 µM
same,TGI,PC-3 prostate,30.5 µM
same,GI50,A498 renal,16.5 µM
same,TGI,A498 renal,30.3 µM
same,GI50,COLO 205 colon,13.6 µM
same,TGI,COLO 205 colon,29.9 µM
same,GI50,MDA-MB-435,3.82 µM
same,TGI,MDA-MB-435,15.7 µM
same,GI50,MOLT-4 leukemia,13.3 µM
same,TGI,MOLT-4 leukemia,32.2 µM
same,GI50,KM12 colon,16.1 µM
same,TGI,KM12 colon,32.1 µM
same,GI50,HCT-116 colon,11.8 µM
same,TGI,HCT-116 colon,28.6 µM
same,GI50,UACC-62 melanoma,15.5 µM
same,TGI,UACC-62 melanoma,29.3 µM
same,GI50,HS 578T breast,18.3 µM
same,TGI,HS 578T breast,45.2 µM
same,GI50,DU-145 prostate,15.9 µM
same,TGI,DU-145 prostate,32.5 µM
same,GI50,ACHN renal,15.7 µM
same,TGI,ACHN renal,29.1 µM
same,GI50,OVCAR-4 ovarian,14.9 µM
same,TGI,OVCAR-4 ovarian,29.6 µM
same,GI50,HT29 colon,5.8 µM
same,TGI,HT29 colon,20.6 µM
same,GI50,LOX IMVI melanoma,11.7 µM
same,TGI,LOX IMVI melanoma,25 µM
same,GI50,SNB-19 CNS,17.5 µM
same,TGI,SNB-19 CNS,34.7 µM
same,GI50,HOP-92 NSCLC,10.1 µM
same,TGI,HOP-92 NSCLC,25.9 µM
same,GI50,TK-10 renal,17.3 µM
same,TGI,TK-10 renal,32.3 µM
same,GI50,SK-OV-3 ovarian,17 µM
same,TGI,SK-OV-3 ovarian,35.1 µM
same,GI50,MDA-MB-468 breast,10.1 µM
same,TGI,MDA-MB-468 breast,22.6 µM
same,GI50,SF-539 CNS,13.4 µM
same,TGI,SF-539 CNS,26.2 µM
same,GI50,SK-MEL-5 melanoma,14 µM
same,TGI,SK-MEL-5 melanoma,26.9 µM
same,GI50,HOP-62 NSCLC,16.2 µM
same,TGI,HOP-62 NSCLC,32.3 µM
same,GI50,SR leukemia,11.7 µM
same,TGI,SR leukemia,35.4 µM
same,GI50,SF-295 CNS,12.5 µM
same,TGI,SF-295 CNS,26.1 µM
same,GI50,SW-620 colon,14.5 µM
same,TGI,SW-620 colon,31.7 µM
same,GI50,CCRF-CEM leukemia,12 µM
same,TGI,CCRF-CEM leukemia,29.5 µM
same,GI50,RPMI-8226 leukemia,17.2 µM
same,TGI,RPMI-8226 leukemia,51.8 µM
same,GI50,BT-549 breast,17.6 µM
same,TGI,BT-549 breast,33.3 µM
same,GI50,EKVX NSCLC,14.9 µM
same,TGI,EKVX NSCLC,31.3 µM
same,GI50,OVCAR-8 ovarian,17 µM
same,TGI,OVCAR-8 ovarian,34.5 µM
same,GI50,CAKI-1 renal,14.5 µM
same,TGI,CAKI-1 renal,27.8 µM
same,GI50,SN12C renal,15 µM
same,TGI,SN12C renal,29 µM
same,GI50,NCI/ADR-RES ovarian,14.9 µM
same,TGI,NCI/ADR-RES ovarian,37.9 µM
same,GI50,RXF 393 renal,11.8 µM
same,TGI,RXF 393 renal,26.2 µM
same,GI50,HL-60(TB) leukemia,12.4 µM
same,TGI,HL-60(TB) leukemia,29.7 µM
same,GI50,UO-31 renal,13.7 µM
same,TGI,UO-31 renal,27.7 µM
same,GI50,NCI-H23 lung,15.2 µM
same,TGI,NCI-H23 lung,30.4 µM
same,GI50,NCI-H522 lung,15.2 µM
same,TGI,NCI-H522 lung,31.3 µM
same,GI50,U251 CNS,17.6 µM
same,TGI,U251 CNS,33.3 µM
same,GI50,SK-MEL-2 melanoma,16.1 µM
same,TGI,SK-MEL-2 melanoma,31.3 µM
same,GI50,MALME-3M melanoma,15.8 µM
same,TGI,MALME-3M melanoma,29.8 µM
same,GI50,M14 melanoma,12.1 µM
same,TGI,M14 melanoma,26.5 µM
same,GI50,IGROV1 ovarian,17 µM
same,TGI,IGROV1 ovarian,32.3 µM
same,GI50,UACC-257 melanoma,16.3 µM
same,TGI,UACC-257 melanoma,31.7 µM
same,GI50,SF-268 CNS,15.3 µM
same,TGI,SF-268 CNS,34.5 µM
same,GI50,NCI-H460 lung,12.5 µM
same,TGI,NCI-H460 lung,27.8 µM
same,GI50,MCF7 breast,10.4 µM
same,TGI,MCF7 breast,24.2 µM
same,GI50,OVCAR-5 ovarian,15.3 µM
same,TGI,OVCAR-5 ovarian,29 µM
same,GI50,786-0 renal,15.8 µM
same,TGI,786-0 renal,33.4 µM
same,GI50,OVCAR-3 ovarian,10.7 µM
same,TGI,OVCAR-3 ovarian,26 µM
same,GI50,MDA-MB-231 breast,14.1 µM
same,TGI,MDA-MB-231 breast,27.8 µM
same,GI50,SK-MEL-28 melanoma,15.9 µM
same,TGI,SK-MEL-28 melanoma,29.5 µM
same,GI50,HCT-15 colon,8.09 µM
same,TGI,HCT-15 colon,21.6 µM
